Here are results for 1 molecule from US20240400547A1, “2,6-PIPERIDINEDIONE COMPOUND AND APPLICATION THEREOF” (MEDSHINE DISCOVERY INC., priority 2021, published 2024).

Data set [1] can be described thus: Pharmacokinetic evaluation in beagles. It counts as in vivo, beagle. Conditions: beagles (fed). An excerpt: In this study, male beagles were selected as test animals, and LC/MS/MS method was used to quantify plasma concentrations of the test compound intravenously injected or intragastrically administered to beagles at different time points, so as to evaluate the pharmacokinetic profile of the compounds of the present disclosure in beagles.
Beagle (male, 7 to 10 kg, Beijing Marshall Biotechnology Co., Ltd.).
• A clear solution of the test compound was slowly injected into beagle via the peripheral vein (fed) (vehicle: […]/10% solutol/85% H2O or 5% DMSO/10% solutol/85% H2O), or intragastrically administered to beagles (fed). For intravenous injection, 0.5 mL blood was collected via the saphenous vein puncture at 0.083, 0.25, 0.5, 1, 2, 4, 6, 8, and 24 h after administration, and placed in a EDTA-2K anticoagulant tube. The mixture was centrifuged at 3200 g for 10 minutes at 2 to 8° C., and the supernatant was separated. For oral administration, 0.5 mL blood was collected via the saphenous vein puncture at 0.083, 0.25, 0.5, 1, 2, 4, 6, 8, and 24 h after administration, and placed in a EDTA-2K anticoagulant tube. The mixture was centrifuged at 3200 g for 10 minutes at 2 to 8° C., and the supernatant was separated. Plasma drug concentrations were determined by LC-MS/MS method, and relevant pharmacokinetic parameters were calculated using Phoenix WinNonlin 6.3 pharmacokinetic software with non-compartmental model linear-log trapezoidal method.

The subject of data set [2] is human lymphoma SU-DHL-2 cells. The data set can be described thus: In vivo efficacy in CB17 SCID mouse model with subcutaneous xenograft tumors of human lymphoma SU-DHL-2 cells. Conditions: for Tumor volume (Day 0): Day 0 (grouping, baseline); for Tumor volume (Day 0) / Tumor volume (Day 21): average, SEM in next grid line. The arrangement: species or system CB17 SCID mice. Here is the method:
The study evaluates the antitumor effect of the test compounds using a CB17 SCID mouse model with subcutaneous xenograft tumors of SU-DHL-2 human lymphoma cells.
• 1. Experimental animals: CB17 SCID mice, female, 6 to 8 weeks old, weighing 18 to 22 g. Beijing Vital River Laboratory Animal Technology Co., Ltd. • 2. Cell line: human lymphoma SU-DHL-2 cells (Cat. No ATCC-CRL-2956).
Cell culture: Human lymphoma SU-DHL-2 cells (ATCC-CRL-2956) were cultured in suspension in vitro. The culture conditions were RPMI 1640 medium with […] fetal bovine serum, 100 U/mL penicillin and 100 μg/mL streptomycin, and cultured in a 37° C., […] incubator. Routine passaging was performed twice a week. When the cell saturation reached […] and the quantity met the requirements, the cells were collected, counted, and seeded.
Tumor cell seeding and grouping: 0.2 mL (10×10^6 cells) of SU-DHL-2 cells, in a PBS:Matrigel=1:1 mixture, were subcutaneously inoculated into the right dorsal flank of each mouse. When the average tumor volume reached approximately 139 mm^3, the animals were divided into groups for drug administration. The day of grouping was recorded as Day 0, and dosing began according to the body weight of the animals.
The pharmacological experiment consisted of a dosing cycle of seven days, with medication administered once daily at a 24-hour interval. The test compounds were given intragastrically, with a total of three dosing cycles. During the experiment, the body weight and tumor size of the animals were measured twice a week, and clinical symptoms were observed and recorded daily.
The dosing for the test compounds were 10 mg/kg, 30 mg/kg, and 100 mg/kg, with a solvent composition of 10% DMSO/10% Solutol/80% water. The formula for calculating tumor volume (TV) was: 1/2×a×b^2, where a and b were the measured length and width of the tumor, respectively. The formula for calculating the Tumor Growth Inhibition (TGI) rate was: TGI (%)=[(1−(average tumor volume at the end of administration in a treatment group average tumor volume at the beginning of administration in this treatment group))/(average tumor volume at the end of treatment in the vehicle control group−average tumor volume at the beginning of treatment in the vehicle control group)]×100%. Relative Tumor Proliferation rate T/C (%): the calculation formula was as follows: T/C %=TRTV/CRTV×100% (TRTV: average RTV of the treatment group; CRTV: average RTV of the negative control group). According to the results of tumor measurement, the relative tumor volume (RTV) was calculated, and the calculation formula was RTV=Vt/V0, where V0 was the tumor volume measured at the time of group administration (i.e. Day 0), VT was the tumor volume at a certain measurement, and TRTV and CRTV were taken from the same day's data.
Statistical analysis is based on the data of RTV at the end of the experiment and analyzed by SPSS software. For comparisons between two groups, a T test was used. For comparisons among three or more groups, one-way ANOVA was utilized. If the variance was homogenous (no significant difference in F value), Tukey's method was applied for analysis. If the variance was heterogeneous (significant difference in F value), the Games-Howell method was used for testing. A p-value of <0.05 was considered statistically significant.

Setting [3] is: intragastric administration 5 mg/kg.
[4] abbreviates: 10 mg/kg intragastric once daily.
The mark [5] stands for this setting: 30 mg/kg intragastric once daily.
Setting [6] is: 100 mg/kg intragastric once daily.

Counter-ions that a name gives are not always drawn.

For `O=C1CCC(c2noc3ccc4c(NC(=O)CN5CCN(C[C@H]6CC[C@H](n7cc(NC(=O)c8coc(-c9ccnc(NCC%10CC%10)c9)n8)c(C(F)F)n7)CC6)CC5)cccc4c23)C(=O)N1` (some centres unmarked) [Hydrochloride of WX014], in data set [1] (setting [3]), the “Area under drug-time curve (0-inf)” value turned out to be 3.20 µM·h, the Peak concentration was determined as 0.41 µM and the “Time to peak concentration” value is given as 4.00 h. Also, the “Area under drug-time curve (0-inf)” value in data set [1] (intravenous injection 0.5 mg/kg) was 0.44 µM·h. Besides, in data set [1] (male, beagle, dog, plasma, intravenous injection 0.5 mg/kg, read-out: Apparent volume of distribution), the Vd is 5.83 L/kg. In data set [2] (setting [4]), the “Tumor volume (Day 0)” value is on record as 139 mm^3, the “T/C (%) (Day 21)” value is recorded as 42.33%, the “TGI (%) (Day 21)” value stood at 62.13% and the “Tumor volume (Day 21)” value is 800 mm^3. Besides, in data set [2] (setting [5]), the “Tumor volume (Day 0)” value came out at 139 mm^3, the “T/C (%) (Day 21)” value came to 42.26%, the “TGI (%) (Day 21)” value is 61.41% and the “Tumor volume (Day 21)” value was determined as 813 mm^3. In data set [2] (setting [6]), the “Tumor volume (Day 0)” value stood at 139 mm^3, the “T/C (%) (Day 21)” value is recorded as 33.23%, the “TGI (%) (Day 21)” value is on record as 72.07% and the “Tumor volume (Day 21)” value came to 626 mm^3.
